Assay results from ChEMBL document CHEMBL3526110, “Preclinical evaluation of the metabolism and disposition of RRx-001, a novel investigative anticancer agent” (Drug Metab Dispos, 2012).

Key:
[1] = Drug excretion in Wistar Hanover rat urine at 10 mg/kg, iv administered as single dose after 168 hrs; format: ADME, organism-based; parameters: dose 10 mg/kg, route intravenous; conditions: read-out: Drug excretion
[2] = Half life in Wistar Hanover rat blood at 10 mg/kg, iv administered as single dose; format: ADME, organism-based; parameters: dose 10 mg/kg, route intravenous; conditions: whole blood
Blood [3] = assay: Drug metabolism in rat whole blood assessed as [(S)-2-amino-5-(((R)-1-((carboxymethyl)amino)-3-((2-(3-nitroazetidin-1-yl)-2-oxoethyl)thio)-1-oxopropan-2-yl)amino)-5-oxopentanoic acid] formation at 20 uM by LC-MS/MS method; format: ADME, tissue-based
Blood [4] = assay: Retention time in human whole blood in presence of 0.1% formic acid in acetonitrile at 20 uM by LC-MS/MS method; format: ADME, tissue-based
Blood [5] = assay: Drug metabolism in human whole blood assessed as [(R)-2-(2-amino-3-((2-(3,3-dinitroazetidin-1-yl)-2-oxoethyl)thio)propanamido)acetic acid] formation at 20 uM by LC-MS/MS method; format: ADME, tissue-based
[6] = Ratio of drug level in monkey blood to monkey plasma at 1 uM after 30 mins; format: ADME, Macaca mulatta; conditions: rhesus monkey, whole blood
[7] = Half life in Wistar Hanover rat plasma at 10 mg/kg, iv administered as single dose; format: ADME, organism-based; parameters: dose 10 mg/kg, route intravenous
Blood [8] = assay: Retention time in human whole blood in presence of 0.1% formic acid in water at 20 uM by LC-MS/MS method; format: ADME, tissue-based
[9] = Drug excretion in Wistar Hanover rat feces at 10 mg/kg, iv administered as single dose measured on day 7; format: ADME, organism-based; parameters: dose 10 mg/kg, route intravenous; conditions: faeces, read-out: Drug excretion
Blood [10] = assay: Drug metabolism in rat whole blood assessed as [(S)-2-amino-5-(((R)-1-((carboxymethyl)amino)-3-((2-(3-(hydroxyimino)azetidin-1-yl)-2-oxoethyl)thio)-1-oxopropan-2-yl)amino)-5-oxopentanoic acid] formation at 20 uM by LC-MS/MS method; format: ADME, tissue-based
[11] = Binding affinity to monkey hemoglobin assessed as protein bound compound level at 1 uM; format: ADME, Macaca mulatta; conditions: rhesus monkey, read-out: PB (converted)
Blood [12] = assay: Drug metabolism in human whole blood assessed as [(R)-2-amino-3-((2-(3-nitroazetidin-1-yl)-2-oxoethyl)thio)propanoic acid] formation at 20 uM by LC-MS/MS method; format: ADME, tissue-based
[13] = Ratio of drug level in rat blood to rat plasma at 1 uM after 30 mins; format: ADME, cell-free; conditions: whole blood
Blood [14] = assay: Drug level in Wistar Hanover rat blood at 10 mg/kg, iv administered as single dose after 168 hrs; format: ADME, organism-based; parameters: dose 10 mg/kg, route intravenous; conditions: in vivo
Blood [15] = assay: Retention time in human whole blood at 20 uM by LC-MS/MS method; format: ADME, tissue-based
Blood [16] = assay: Drug metabolism in rat whole blood assessed as [(S)-2-amino-5-(((R)-1-((carboxymethyl)amino)-3-((2-(3,3-dinitroazetidin-1-yl)-2-oxoethyl)thio)-1-oxopropan-2-yl)amino)-5-oxopentanoic acid] formation at 20 uM by LC-MS/MS method; format: ADME, tissue-based
Plasma [17] = assay: AUC (0 to infinity) in Wistar Hanover rat plasma at 10 mg/kg, iv administered as single dose; format: ADME, organism-based; parameters: time infinity, dose 10 mg/kg, route intravenous; conditions: in vivo
Blood [18] = assay: Retention time in rat whole blood at 20 uM by LC-MS/MS method; format: ADME, tissue-based
Blood [19] = assay: Drug metabolism in rat whole blood assessed as [(R)-2-(2-amino-3-((2-(3,3-dinitroazetidin-1-yl)-2-oxoethyl)thio)propanamido)acetic acid] formation at 20 uM by LC-MS/MS method; format: ADME, tissue-based
[20] = Binding affinity to rat hemoglobin assessed as protein bound compound level at 1 uM; format: ADME; conditions: read-out: PB (converted)
[21] = Stability in pH 7.0 buffer; format: physicochemical
Nucleic Acid = assay: Ratio of drug level in blood to plasma in Wistar Hanover rat at 10 mg/kg, iv administered as single dose after 168 hrs; format: ADME, organism-based; parameters: dose 10 mg/kg, route intravenous; conditions: in vivo
[22] = Binding affinity to rat hemoglobin assessed as protein bound compound level at 20 uM; format: ADME; conditions: read-out: PB (converted)
[23] = Drug excretion in Wistar Hanover rat feces at 10 mg/kg, iv administered as single dose measured on day 2; format: ADME, organism-based; parameters: dose 10 mg/kg, route intravenous; conditions: faeces, read-out: Drug excretion
[24] = Drug excretion in Wistar Hanover rat feces at 10 mg/kg, iv administered as single dose measured on day 1; format: ADME, organism-based; parameters: dose 10 mg/kg, route intravenous; conditions: faeces, read-out: Drug excretion
[25] = Binding affinity to dog hemoglobin assessed as protein bound compound level at 1 uM; format: ADME, Canis lupus familiaris; conditions: read-out: PB (converted)
[26] = Ratio of drug level in blood to plasma in Wistar Hanover rat at 10 mg/kg, iv administered as single dose after 0.083 hrs; format: ADME, organism-based; parameters: dose 10 mg/kg, route intravenous; conditions: whole blood and plasma
[27] = Drug excretion in Wistar Hanover rat urine at 10 mg/kg, iv administered as single dose after 0 to 8 hrs; format: ADME, organism-based; parameters: dose 10 mg/kg, route intravenous; conditions: read-out: Drug excretion
Blood [28] = assay: Retention time in rat whole blood in presence of 0.1% formic acid in water at 20 uM by LC-MS/MS method; format: ADME, tissue-based
Blood [29] = assay: Drug metabolism in rat whole blood assessed as (R)-2-amino-3-((2-(3,3-dinitroazetidin-1-yl)-2-oxoethyl)thio)propanoic acid] formation at 20 uM by LC-MS/MS method; format: ADME, tissue-based
[30] = Ratio of drug level in monkey blood to monkey plasma at 20 uM after 30 mins; format: ADME, Macaca mulatta; conditions: rhesus monkey, whole blood
[31] = Ratio of drug level in rat blood to rat plasma at 20 uM after 30 mins; format: ADME, cell-free; conditions: whole blood
[32] = Ratio of drug level in dog blood to dog plasma at 1 uM after 30 mins; format: ADME, Canis lupus familiaris; conditions: whole blood
[33] = Drug level in Wistar Hanover rat bile at 10 mg/kg, iv administered as single dose after 24 hrs; format: ADME, organism-based; parameters: dose 10 mg/kg, route intravenous; conditions: in vivo
[34] = Volume of distribution in Wistar Hanover rat blood at 10 mg/kg, iv administered as single dose; format: ADME, organism-based; parameters: dose 10 mg/kg, route intravenous; conditions: whole blood
[35] = Stability in water; format: physicochemical; conditions: buffer
Blood [36] = assay: Drug metabolism in rat whole blood assessed as [(S)-2-amino-5-(((R)-1-((carboxymethyl)amino)-1-oxo-3-((2-oxo-2-(3-oxoazetidin-1-yl)ethyl)thio)propan-2-yl)amino)-5-oxopentanoic acid] formation at 20 uM by LC-MS/MS method; format: ADME, tissue-based
[37] = Ratio of drug level in dog blood to dog plasma at 20 uM after 30 mins; format: ADME, Canis lupus familiaris; conditions: whole blood
[38] = Volume of distribution in Wistar Hanover rat plasma at 10 mg/kg, iv administered as single dose; format: ADME, organism-based; parameters: dose 10 mg/kg, route intravenous
Blood [39] = assay: Drug level in Wistar Hanover rat blood at 10 mg/kg, iv administered as single dose after 168 hrs relative to total radioactivity; format: ADME, organism-based; parameters: dose 10 mg/kg, route intravenous; conditions: in vivo
Blood [40] = assay: Retention time in rat whole blood in presence of 0.1% formic acid in acetonitrile at 20 uM by LC-MS/MS method; format: ADME, tissue-based
Plasma [41] = assay: AUC (0 to t) in Wistar Hanover rat plasma at 10 mg/kg, iv administered as single dose; format: ADME, organism-based; parameters: dose 10 mg/kg, route intravenous; conditions: in vivo
Blood [42] = assay: Drug metabolism in human whole blood assessed as [(S)-2-amino-5-(((R)-1-((carboxymethyl)amino)-3-((2-(3-(hydroxyimino)azetidin-1-yl)-2-oxoethyl)thio)-1-oxopropan-2-yl)amino)-5-oxopentanoic acid] formation at 20 uM by LC-MS/MS method; format: ADME, tissue-based
[43] = Ratio of drug level in human blood to human plasma at 1 uM after 30 mins; format: ADME; conditions: whole blood
[44] = Ratio of drug level in human blood to human plasma at 20 uM after 30 mins; format: ADME; conditions: whole blood
Blood [45] = assay: Drug metabolism in human whole blood assessed as [(S)-2-amino-5-(((R)-1-((carboxymethyl)amino)-3-((2-(3,3-dinitroazetidin-1-yl)-2-oxoethyl)thio)-1-oxopropan-2-yl)amino)-5-oxopentanoic acid] formation at 20 uM by LC-MS/MS method; format: ADME, tissue-based
Blood [46] = assay: Drug metabolism in rat whole blood assessed as [(R)-2-amino-3-((2-(3-nitroazetidin-1-yl)-2-oxoethyl)thio)propanoic acid] formation at 20 uM by LC-MS/MS method; format: ADME, tissue-based
Blood [47] = assay: Drug metabolism in human whole blood assessed as [(S)-2-amino-5-(((R)-1-((carboxymethyl)amino)-1-oxo-3-((2-oxo-2-(3-oxoazetidin-1-yl)ethyl)thio)propan-2-yl)amino)-5-oxopentanoic acid] formation at 20 uM by LC-MS/MS method; format: ADME, tissue-based
Blood [48] = assay: Drug metabolism in human whole blood assessed as [(S)-2-amino-5-(((R)-1-((carboxymethyl)amino)-3-((2-(3-nitroazetidin-1-yl)-2-oxoethyl)thio)-1-oxopropan-2-yl)amino)-5-oxopentanoic acid] formation at 20 uM by LC-MS/MS method; format: ADME, tissue-based
Blood [49] = assay: Drug metabolism in human whole blood assessed as (R)-2-amino-3-((2-(3,3-dinitroazetidin-1-yl)-2-oxoethyl)thio)propanoic acid] formation at 20 uM by LC-MS/MS method; format: ADME, tissue-based
[50] = Binding affinity to monkey hemoglobin assessed as protein bound compound level at 20 uM; format: ADME, Macaca mulatta; conditions: rhesus monkey, read-out: PB (converted)
Blood [51] = assay: Drug level in Wistar Hanover rat blood at 10 mg/kg, iv administered as single dose after 24 hrs; format: ADME, organism-based; parameters: dose 10 mg/kg, route intravenous; conditions: in vivo
Stomach = assay: Drug level in Wistar Hanover rat stomach at 10 mg/kg, iv administered as single dose after 24 hrs; format: ADME, organism-based; parameters: dose 10 mg/kg, route intravenous; conditions: in vivo
Blood [52] = assay: AUC (0 to t) in Wistar Hanover rat blood at 10 mg/kg, iv administered as single dose; format: ADME, organism-based; parameters: dose 10 mg/kg, route intravenous; conditions: in vivo
[53] = Binding affinity to human hemoglobin assessed as protein bound compound level at 20 uM; format: ADME; conditions: read-out: PB (converted)
[54] = Binding affinity to human hemoglobin assessed as protein bound compound level at 1 uM; format: ADME; conditions: read-out: PB (converted)

In the case of `O=C(CBr)N1CC([N+](=O)[O-])([N+](=O)[O-])C1` [NIBROZETONE], the dose excreted at 168 h [1] is reported as 36.3%, the half-life [2] is reported as greater than 168 h and the Drug metabolism (Blood [3]) is reported as “metabolite_detected”. The Retention_time (Blood [4]) was 15.1 min, the Drug metabolism (Blood [5]) was “metabolite_detected” and the blood plasma ratio at 0.5 h, 1 µM [6] was 0.82. The half-life [7] was 66.1 h, the Retention_time (Blood [8]) was 12.8 min and the dose excreted [9] was 0.06%. The Drug metabolism (Blood [10]) was “metabolite_detected”, the fraction unbound at 1 µM [11] was 0.902 and the Drug metabolism (Blood [12]) was “metabolite_detected”. For the same molecule, the blood plasma ratio at 0.5 h, 1 µM [13] was 2.1, the Drug uptake (Blood [14]) was 69600 ngequiv/g and the Retention_time (Blood [15]) was 15.4 min. The Drug metabolism (Blood [16]) was “metabolite_detected”, the AUC (Plasma [17]) was 200000 ngequiv.hr/g and the Retention_time (Blood [18]) was 15.4 min. For the same molecule, the Drug metabolism (Blood [19]) was “metabolite_detected”, the fraction unbound at 1 µM [20] was 0.31 and the Stability [21] was “Stable”. It also gave a Ratio (Nucleic Acid) of 222, a fraction unbound at 20 µM [22] of 0.21 and a dose excreted [23] of 0.3%. The dose excreted [24] was 1.5%, the fraction unbound at 1 µM [25] was 0.77 and the blood plasma ratio at 0.083 h [26] was 12.4. The dose excreted [27] was 26%, the Retention_time (Blood [28]) was 12.8 min and the Drug metabolism (Blood [29]) was “metabolite_detected”. For the same molecule, the blood plasma ratio at 0.5 h, 20 µM [30] was 1.5, the blood plasma ratio at 0.5 h, 20 µM [31] was 4 and the blood plasma ratio at 0.5 h, 1 µM [32] was 0.83. For the same molecule, the Drug uptake [33] was “Not Active”, the Vd [34] was 0.084 L/kg and the Stability [35] was “Stable”. The Drug metabolism (Blood [36]) was “metabolite_detected”, the blood plasma ratio at 0.5 h, 20 µM [37] was 1.2 and the Vd [38] was 0.926 L/kg. The Drug uptake (Blood [39]) was 61.8%, the Retention_time (Blood [40]) was 15.1 min and the AUCt (Plasma [41]) was 160000 ngequiv.hr/g. For the same molecule, the Drug metabolism (Blood [42]) was “metabolite_detected”, the blood plasma ratio at 0.5 h, 1 µM [43] was 1 and the blood plasma ratio at 0.5 h, 20 µM [44] was 0.99. The Drug metabolism (Blood [45]) was “metabolite_detected”, the Drug metabolism (Blood [46]) was “metabolite_detected” and the Drug metabolism (Blood [47]) was “metabolite_detected”. For the same molecule, the Drug metabolism (Blood [48]) was “metabolite_detected”, the Drug metabolism (Blood [49]) was “metabolite_detected” and the fraction unbound at 20 µM [50] was 0.8. The Drug uptake (Blood [51]) was 76500 ngequiv/g, the Drug uptake (Stomach) was “Not Active” and the AUCt (Blood [52]) was 14900000 ngequiv.hr/g. For the same molecule, the fraction unbound at 20 µM [53] was 0.78 and the fraction unbound at 1 µM [54] was 0.71.
